In one assay the target is T1, human plasma kallikrein (Homo sapiens, UniProt P03952).
T1 construct: purchased Stratech, UK
Nature of the assay: Functional enzyme assay, inhibition of human plasma kallikrein (Z-PheArg-AMC substrate). It counts as biochemical. The method, then:
(§1) Functional enzyme assays were conducted in 10 mM Tris HCl, 150 mM NaCl, 10 mM MgCl2, 1 mM CaCl2 and 1 mg/mL BSA (all Sigma UK) pH 7.4 at 25° C. in solid black 96 or 384 well plates. […] Release of AMC was measured using a Pherastar FS (BMG Labtech), excitation 360 nm, emission 460 nm. The rate of the linear phase of the reaction, typically 5 to 45 minutes, was calculated in MARS data analysis software (BMG labtech). The rate was then used to calculate the IC50 and Ki in Prism (GraphPad). A four parameter inhibition non-linear regression equation was used to calculate the IC50. […]
(§2) Peptides were dissolved as the TFA-salts in their powder form, and stock solutions were usually prepared in water. All solutions were centrifuged and filtered ([…] syringe filters) prior to absorption measurement at 280 nm. Extinction coefficients were calculated based on the Trp/Tyr content of the peptide, and that of TMB (the TMB core, when contained in a peptide, has an extinction coefficient of ˜300 M^−1 cm^−1).

The next assay deals with rabbit kallikrein (Oryctolagus cuniculus, UniProt G1T127). Nature of the assay: Functional enzyme assay, inhibition of rabbit kallikrein. Format: biochemical. Here is the method: as §1, §2
Sequence of rabbit kallikrein (G1T127 20-629): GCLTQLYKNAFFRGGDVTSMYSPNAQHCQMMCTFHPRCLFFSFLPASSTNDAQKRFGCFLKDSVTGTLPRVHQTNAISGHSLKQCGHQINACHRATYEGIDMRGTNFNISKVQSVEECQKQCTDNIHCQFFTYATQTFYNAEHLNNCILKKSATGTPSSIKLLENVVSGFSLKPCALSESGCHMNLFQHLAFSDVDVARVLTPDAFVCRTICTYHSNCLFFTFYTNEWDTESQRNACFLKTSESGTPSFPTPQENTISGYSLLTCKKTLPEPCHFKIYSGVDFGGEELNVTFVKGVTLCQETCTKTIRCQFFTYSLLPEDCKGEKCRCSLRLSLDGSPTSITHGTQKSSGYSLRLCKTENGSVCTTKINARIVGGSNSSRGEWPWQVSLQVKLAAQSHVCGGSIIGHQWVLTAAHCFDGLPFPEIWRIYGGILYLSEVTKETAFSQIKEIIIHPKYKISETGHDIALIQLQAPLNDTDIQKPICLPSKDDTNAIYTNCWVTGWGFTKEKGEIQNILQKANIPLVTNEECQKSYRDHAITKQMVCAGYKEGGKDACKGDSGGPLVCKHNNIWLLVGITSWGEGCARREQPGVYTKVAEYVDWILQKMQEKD

Like-named read-outs stand apart in the source and are kept apart here. *1 amine or outer side, *2 acyl side, *3 side chain or, on linkers, in order; H or OH if unused. Where a SMILES comes first, the peptide text is derived from it. Bridges are numbered along the chain shown (N, C = ends). [ ]: non-standard residue; d: D form. TBMB = c1c(C[*:1])cc(C[*:3])cc1C[*:2]; hArg = N=C(N)NCCCC[C@H](N)C(=O)O; Aze = O=C(O)[C@@H]1CCN1; Sar = CNCC(=O)O

T1 sequence (P03952 391-638 limits assumed): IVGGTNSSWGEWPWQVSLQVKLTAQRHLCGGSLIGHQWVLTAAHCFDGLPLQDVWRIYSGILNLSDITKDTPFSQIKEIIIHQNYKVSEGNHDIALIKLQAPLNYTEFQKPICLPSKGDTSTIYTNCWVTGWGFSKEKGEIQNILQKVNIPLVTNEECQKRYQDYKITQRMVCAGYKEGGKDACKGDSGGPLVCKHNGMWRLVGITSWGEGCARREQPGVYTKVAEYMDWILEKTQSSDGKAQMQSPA
T1 sequence (P03952 20-390 partner limits assumed): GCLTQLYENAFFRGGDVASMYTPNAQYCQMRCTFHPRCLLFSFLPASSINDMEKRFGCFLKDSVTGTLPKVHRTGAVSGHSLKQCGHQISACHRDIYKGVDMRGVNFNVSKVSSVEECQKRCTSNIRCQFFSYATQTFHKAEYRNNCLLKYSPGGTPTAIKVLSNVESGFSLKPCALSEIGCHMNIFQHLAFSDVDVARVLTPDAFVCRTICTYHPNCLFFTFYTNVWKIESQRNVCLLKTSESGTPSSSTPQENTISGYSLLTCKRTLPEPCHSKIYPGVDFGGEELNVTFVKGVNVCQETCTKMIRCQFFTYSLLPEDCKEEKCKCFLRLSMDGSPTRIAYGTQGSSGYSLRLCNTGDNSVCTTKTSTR

As usually defined, the Ki is the dissociation constant of the complex between target and ligand, obtained from inhibition or displacement. Turning to `CC[C@H](C)[C@@H]1NC(=O)[C@H](CC(C)C)NC(=O)[C@H]([C@@H](C)O)NC(=O)[C@@H]2CSCc3cc(cc(c3)CSC[C@@H](C(=O)N[C@@H](C)C(=O)N(C)CC(=O)N(C)CC(=O)N(C)CC(=O)N[C@H](CCCNC(=N)N)C(=O)N[C@H](CCCNC(=N)N)C(N)=O)NC(=O)[C@H]([C@@H](C)O)NC(=O)[C@H]([C@@H](C)CC)NC(=O)[C@H](CC(N)=O)NC1=O)CSC[C@H](NC(C)=O)C(=O)N[C@@H](CCCNC(=N)N)C(=O)N[C@@H](CC(N)=O)C(=O)N[C@@H](Cc1ccc(O)cc1)C(=O)N[C@@H](Cc1c[nH]c3ccccc13)C(=O)N[C@@H](CC(N)=O)C(=O)N1CCC[C@H]1C(=O)N2` [Ac-(06-255)-Sar3-(DArg2)] (Ac-CRNYWNPCTLINITCA[Sar][Sar][Sar][dR][dR]-NH2; linker 1-8-15 via TBMB), affinity on human plasma kallikrein was put at a Ki of 1.2 nM.

At human plasma kallikrein, `CC[C@H](C)[C@@H]1NC(=O)[C@H](CC(=O)O)NC(=O)[C@@H]2CCCN2C(=O)[C@H](Cc2ccc(O)cc2)NC(=O)[C@H](Cc2ccc(O)cc2)NC(=O)[C@H](C(C)C)NC(=O)[C@@H]2CSCc3cc(cc(c3)CSC[C@H](NC(C)=O)C(=O)N[C@@H](CO)C(=O)N[C@@H](Cc3ccccc3)C(=O)N3CC[C@H]3C(=O)N[C@@H](Cc3ccc(O)cc3)C(=O)N[C@@H](CCCCNC(=N)N)C(=O)N2)CSC[C@@H](C(N)=O)NC1=O` [Ac-(06-550) Aze3 HArg5] (Ac-CSF[Aze]Y[hArg]CVYYPDIC-NH2; linker 1-7-14 via TBMB) yielded an inhibition constant Ki of 0.5 nM.

Regarding `CC[C@H](C)[C@@H]1NC(=O)[C@H](CC(C)C)NC(=O)[C@H]([C@@H](C)O)NC(=O)[C@@H]2CSCc3cc(cc(c3)CSC[C@H](NC(C)=O)C(=O)N[C@@H](CCCNC(=N)N)C(=O)N[C@@H](CC(N)=O)C(=O)N[C@@H](Cc3ccc(O)cc3)C(=O)N[C@@H](Cc3c[nH]c4ccccc34)C(=O)N[C@@H](CC(N)=O)C(=O)N3CCC[C@H]3C(=O)N2)CSC[C@@H](C(N)=O)NC(=O)[C@H]([C@@H](C)O)NC(=O)[C@H]([C@@H](C)CC)NC(=O)[C@H](CC(N)=O)NC1=O` [Ac-(06-255)] (Ac-CRNYWNPCTLINITC-NH2; linker 1-8-15 via TBMB; C-terminus assumed), affinity at rabbit kallikrein was put at a Ki of 342 nM.

Regarding `CC(C)C[C@@H]1NC(=O)[C@@H]2CCCN2C(=O)[C@H](C)NC(=O)[C@H](CC(=O)O)NC(=O)[C@H](Cc2c[nH]c3ccccc23)NC(=O)[C@@H]2CCCN2C(=O)[C@@H]2CSCc3cc(cc(c3)CSC[C@@H](C(=O)N[C@@H](C)C(N)=O)NC1=O)CSC[C@H](NC(=O)[C@H](C)N)C(=O)N[C@@H](CC(N)=O)C(=O)N[C@@H](Cc1ccc(O)cc1)C(=O)N[C@@H](Cc1c[nH]c3ccccc13)C(=O)N[C@@H](CC(N)=O)C(=O)N1CCC[C@H]1C(=O)N[C@@H](Cc1c[nH]c3ccccc13)C(=O)N2` [06-259-04] (H-ACNYWNPWCPWDAPLCA-NH2; linker 2-9-16 via TBMB; N-terminus assumed), at human plasma kallikrein (Table 5, read-out: Human (Ki)), the Ki was found to be 3.4 nM.
